Consider 21 molecules from US20160052926A1, “NOVEL PYRIMIDINE AND PYRIDINE COMPOUNDS AND USAGE THEREOF” (HUTCHISON MEDIPHARMA LIMITED, priority 2013, published 2016).

The target in test [1] is Recombinant human FGFR1 (Homo sapiens, UniProt P11362). Put plainly: Transcreener Kinase Assay of FGFR1. The format is biochemical.
In test [2] the target is Recombinant human FGFR2 (Homo sapiens, UniProt P21802). Put plainly: Transcreener Kinase Assay of FGFR2. The format is biochemical.
The target in test [3] is FGFR3 kinase (Homo sapiens, UniProt P22607). Put plainly: Z-Lyte Kinase Assay of FGFR3. The format is biochemical. In a few lines: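 Kinase at 0.7 μg/ml with 4 μM Z-LYTE Tyr 4 peptide and ATP diluted to 300 uM (working solution, 1.33× buffer); compounds 1–0.00046 μM, 2% DMSO final. Kinase reaction and development each 1 h at RT (25-30[…]); coumarin (445 nm) and fluorescein (520 nm) emission read, inhibition from % phosphorylation.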
Chain of FGFR3 kinase (P22607 23-806): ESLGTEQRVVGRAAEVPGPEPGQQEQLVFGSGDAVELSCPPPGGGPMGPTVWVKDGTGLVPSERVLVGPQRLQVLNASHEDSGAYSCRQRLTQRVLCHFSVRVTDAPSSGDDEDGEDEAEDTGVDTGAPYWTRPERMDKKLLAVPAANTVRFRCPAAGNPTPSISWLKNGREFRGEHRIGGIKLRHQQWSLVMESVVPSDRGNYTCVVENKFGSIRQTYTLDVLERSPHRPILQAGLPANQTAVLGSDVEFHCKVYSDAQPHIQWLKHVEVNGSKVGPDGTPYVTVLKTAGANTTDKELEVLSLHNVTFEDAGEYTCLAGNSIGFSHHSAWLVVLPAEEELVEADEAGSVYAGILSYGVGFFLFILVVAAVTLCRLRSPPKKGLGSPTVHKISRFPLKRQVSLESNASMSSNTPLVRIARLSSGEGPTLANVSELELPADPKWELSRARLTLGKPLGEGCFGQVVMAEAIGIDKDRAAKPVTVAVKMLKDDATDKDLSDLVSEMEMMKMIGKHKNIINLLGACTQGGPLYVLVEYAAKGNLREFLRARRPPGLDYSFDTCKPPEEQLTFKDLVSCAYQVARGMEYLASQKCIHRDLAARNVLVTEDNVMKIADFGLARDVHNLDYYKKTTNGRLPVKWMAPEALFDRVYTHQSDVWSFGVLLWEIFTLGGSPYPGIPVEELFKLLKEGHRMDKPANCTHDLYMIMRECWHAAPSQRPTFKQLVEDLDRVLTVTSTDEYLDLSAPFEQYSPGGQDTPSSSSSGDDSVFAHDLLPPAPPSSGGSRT

Test [4] concerns KG-1. As to the kind of experiment: Cellular Proliferation Assay (Cell Counting Kit-8), KG-1. The format is cell-based. As to conditions: Homo sapiens, KG1 cells, 72 hours. Here is the method: (§1) Cellular Proliferation Assay
(§2) • KG-1 (ATCC Accession No. CCL-246), • SNU-16 (ATCC Accession No. CRL-5974), • RT-112 (ECACC Accession No. 85061106)
(§3) • FGFR related cancer cell proliferation is measured in 96-well plates using Cell Counting Kit-8 (Dojindo CK04-13). • Seed 30000 cells/well of KG1, 5000 cells/well of SNU16, and 1000 cells/well of RT112 in a volume of 100 μL/well in growth media. • After 24 hours, dilute the compound to 10, 3.3, 1.1, 0.37, 0.12, 0.04, 0.013, 0.004 μM, keeping the DMSO concentration at 5%. • Add 10 μL of 8-point compound series to the wells of culturing cells. • Incubate at 37° C. and 5% CO2 for 72 hours • Add 10 μL/well of CCkit8 and incubate at 37° C. and 5% CO2 for an hour • Detect the optical density of each well at 450 nm on Labsystems Multiskan K3.
(§4) • ODcompound well represents the optical density of cells treated with compound. • ODcell well represents the optical density of cells without compounds treatment. (only 0.5% DMSO) • ODcontrol well represents the optical density of culture media background
(§5) The concentration of compound providing 50% of proliferation inhibition was calculated using Excel Fit.
(In general: Formazan colour is commonly taken as a measure of viable cells.)

The subject of test [5] is SNU-16. Put plainly: Cellular Proliferation Assay (Cell Counting Kit-8), SNU-16. The format is cell-based. As to conditions: Homo sapiens, SNU-16 cells, 72 hours. Here is the method: as §1, §2, §3, §4, §5
The subject of test [6] is RT-112. As to the kind of experiment: Cellular Proliferation Assay (Cell Counting Kit-8), RT-112. The format is cell-based. Particulars: Homo sapiens, RT-112 cells, 72 hours. The procedure: as §1, §2, §3, §4, §5

The structures appear in SMILES notation. Where two headings read alike, the source gives them in different places.

Chain of Recombinant human FGFR2 (P21802 22-821): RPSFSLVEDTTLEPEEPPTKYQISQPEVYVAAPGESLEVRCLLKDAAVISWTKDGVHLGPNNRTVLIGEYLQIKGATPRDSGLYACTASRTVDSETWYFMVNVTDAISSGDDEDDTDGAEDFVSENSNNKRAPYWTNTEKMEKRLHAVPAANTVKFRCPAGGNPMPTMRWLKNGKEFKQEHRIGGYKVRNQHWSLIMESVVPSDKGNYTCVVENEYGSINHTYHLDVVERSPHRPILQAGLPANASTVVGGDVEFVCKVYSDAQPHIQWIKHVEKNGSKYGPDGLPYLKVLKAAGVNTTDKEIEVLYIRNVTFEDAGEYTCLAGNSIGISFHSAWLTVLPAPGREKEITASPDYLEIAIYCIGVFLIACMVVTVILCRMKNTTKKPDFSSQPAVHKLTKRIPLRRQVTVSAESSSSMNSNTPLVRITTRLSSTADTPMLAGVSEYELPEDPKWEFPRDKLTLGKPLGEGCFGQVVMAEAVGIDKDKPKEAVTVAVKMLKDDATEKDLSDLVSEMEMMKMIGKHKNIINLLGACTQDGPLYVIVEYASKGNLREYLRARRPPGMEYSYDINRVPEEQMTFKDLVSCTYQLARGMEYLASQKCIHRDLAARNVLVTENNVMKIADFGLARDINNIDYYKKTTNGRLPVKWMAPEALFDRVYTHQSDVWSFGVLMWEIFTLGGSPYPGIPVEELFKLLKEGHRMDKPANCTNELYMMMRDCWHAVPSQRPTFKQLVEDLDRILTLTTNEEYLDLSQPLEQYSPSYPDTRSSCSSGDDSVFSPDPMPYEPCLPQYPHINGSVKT
Chain of Recombinant human FGFR1 (P11362 22-822): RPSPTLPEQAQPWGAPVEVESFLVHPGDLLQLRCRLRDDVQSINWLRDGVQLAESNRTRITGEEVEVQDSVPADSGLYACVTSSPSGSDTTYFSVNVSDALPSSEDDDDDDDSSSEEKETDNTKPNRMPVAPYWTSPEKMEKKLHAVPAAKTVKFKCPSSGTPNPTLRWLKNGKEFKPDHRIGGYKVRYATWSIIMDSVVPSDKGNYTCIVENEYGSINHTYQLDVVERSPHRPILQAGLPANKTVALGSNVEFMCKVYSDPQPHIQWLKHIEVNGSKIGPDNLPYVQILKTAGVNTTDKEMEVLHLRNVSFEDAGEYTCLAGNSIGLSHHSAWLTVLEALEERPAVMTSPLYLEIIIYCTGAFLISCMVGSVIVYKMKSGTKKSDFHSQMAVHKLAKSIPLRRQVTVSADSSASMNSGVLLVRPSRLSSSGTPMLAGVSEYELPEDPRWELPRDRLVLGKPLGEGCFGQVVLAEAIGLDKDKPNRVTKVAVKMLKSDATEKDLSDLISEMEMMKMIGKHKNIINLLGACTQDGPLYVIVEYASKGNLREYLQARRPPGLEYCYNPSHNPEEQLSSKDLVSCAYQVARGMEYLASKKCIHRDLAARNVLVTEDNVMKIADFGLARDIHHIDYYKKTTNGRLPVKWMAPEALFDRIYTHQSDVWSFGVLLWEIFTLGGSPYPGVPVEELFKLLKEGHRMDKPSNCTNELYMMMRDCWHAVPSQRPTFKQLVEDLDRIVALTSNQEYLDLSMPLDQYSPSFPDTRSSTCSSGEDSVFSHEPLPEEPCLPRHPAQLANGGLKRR

The term IC50 denotes the concentration at which inhibition is half-maximal. Regarding `CNC(=O)c1cc(CCc2cnc(Nc3nc(C4CC4)cs3)nc2)c(Cl)c(OC)c1` [Compound 71], the IC50 in test [1] (read-out: FGFR1 (FP) IC50) stood at 126 nM; in test [2] (read-out: FGFR2 (FP) IC50) it was 53 nM; in test [3] it was 591 nM; in test [4] it was 398 nM; in test [5], 708 nM; in test [6], 101 nM.
Take `CNC(=O)c1cc(CCc2cnc(Nc3cnn(C4CC4)c3)nc2)c(Cl)c(OC)c1` [Compound 119]: the IC50 in test [1] (read-out: FGFR1 (FP) IC50) stood at 11 nM; in test [2] (read-out: FGFR2 (FP) IC50), 6 nM; in test [3], 19 nM; in test [4], 22 nM; in test [5] it was 27 nM; in test [6], 124 nM.
With `CNC(=O)c1cc(CCc2cnc(Nc3cnn(CCO)c3)nc2)c(F)c(OC)c1` [Compound 114], the IC50 in test [1] (read-out: FGFR1 (FP) IC50) came to 12 nM; in test [2] (read-out: FGFR2 (FP) IC50) it was 5 nM; in test [3], 14 nM; in test [4], 71 nM; in test [5] it was 88 nM; in test [6], 591 nM.
As for `CNC(=O)c1cc(CCc2cnc(Nc3ccc(CN4CCOCC4)cc3)nc2)c(F)c(OC)c1` [Compound 97], the IC50 in test [1] (read-out: FGFR1 (FP) IC50) stood at 11 nM; in test [2] (read-out: FGFR2 (FP) IC50) it was 6 nM; in test [3], 12 nM; in test [4] it was 26 nM; in test [5], 22 nM; in test [6] it was 159 nM.
Regarding `CNC(=O)c1cc(OC)c(Cl)c(/C=C/c2cnc(Nc3ccc(N4C[C@@H](C)N[C@@H](C)C4)cc3)nc2)c1F` [Compound 8], the IC50 worked out at 6 nM in test [1] (read-out: FGFR1 (FP) IC50); 5 nM in test [2] (read-out: FGFR2 (FP) IC50); 14 nM in test [3]; 11 nM in test [4]; 14 nM in test [5]; 19 nM in test [6].
As for `CCN1CCN(c2ccc(Nc3ncc(CCc4cc(C(=O)NC)cc(OC)c4C)cn3)cc2)CC1` [Compound 39], the IC50 stood at 43 nM in test [1] (read-out: FGFR1 (FP) IC50); 41 nM in test [2] (read-out: FGFR2 (FP) IC50); 43 nM in test [3]; 49 nM in test [4]; 71 nM in test [5]; 342 nM in test [6].
In the case of `CNC(=O)c1cc(CCc2cnc(Nc3cnn(C(C)C)c3)nc2)c(F)c(OC)c1` [Compound 112], the IC50 in test [1] (read-out: FGFR1 (FP) IC50) worked out at 9 nM; in test [2] (read-out: FGFR2 (FP) IC50) it was 7 nM; in test [3], 8 nM; in test [4], 18 nM; in test [5], 17 nM; in test [6], 36 nM.
As to `CCN1CCN(c2ccc(Nc3ncc(CCc4cc(C(=O)NC)cc(OC)c4F)cn3)cc2)C[C@H]1C` [Compound 53], the 50% inhibitory concentration (IC50) in test [1] (read-out: FGFR1 (FP) IC50) amounted to 5 nM; in test [2] (read-out: FGFR2 (FP) IC50), 4 nM; in test [3], 8 nM; in test [4], 14 nM; in test [5] it was 19 nM; in test [6], 49 nM.
For the molecule `CNC(=O)c1cc(CCc2cnc(Nc3ccc(N4C[C@@H](C)N[C@@H](C)C4)c(F)c3)nc2)c(Cl)c(OC)c1` [Compound 204], the IC50 in test [1] (read-out: FGFR1 (FP) IC50) came out at 9 nM; in test [2] (read-out: FGFR2 (FP) IC50) it was 5 nM; in test [3] it was 8 nM; in test [4], 18 nM; in test [5] it was 7 nM; in test [6], 15 nM.
Take `CCONC(=O)c1cc(CCc2cnc(Nc3ccc(N4CCN(CC)CC4)cc3)nc2)cc(OC)c1` [Compound 50]: the IC50 in test [1] (read-out: FGFR1 (FP) IC50) worked out at 14 nM; in test [2] (read-out: FGFR2 (FP) IC50), 15 nM; in test [3], 29 nM; in test [4], 45 nM; in test [5] it was 132 nM; in test [6], 352 nM.
Take `CONC(=O)c1cc(CCc2cnc(Nc3ccc(F)cc3)nc2)cc(OC)c1` [Compound 104]: the IC50 turned out to be 15 nM in test [1] (read-out: FGFR1 (FP) IC50); 9 nM in test [2] (read-out: FGFR2 (FP) IC50); 44 nM in test [3]; 53 nM in test [4]; 38 nM in test [5]; 142 nM in test [6].
On to `CNC(=O)c1cc(CCc2cnc(Nc3cnn(CC4(C)COC4)c3)nc2)c(F)c(OC)c1` [Compound 131], for which the concentration for half-maximal inhibition (IC50) was 19 nM in test [1] (read-out: FGFR1 (FP) IC50); 8 nM in test [2] (read-out: FGFR2 (FP) IC50); 11 nM in test [3]; 37 nM in test [4]; 13 nM in test [5]; 131 nM in test [6].
Take `CCn1cc(Nc2ncc(OCc3cc(C(=O)NC)cc(OC)c3Cl)cn2)cn1` [Compound 184]: the IC50 in test [1] (read-out: FGFR1 (FP) IC50) is 9 nM; in test [2] (read-out: FGFR2 (FP) IC50), 7 nM; in test [4] it was 5 nM; in test [5] it was 10 nM; in test [6], 53 nM.
`CNC(=O)c1cc(CCc2cnc(Nc3ccc(N4C[C@@H](C)N[C@@H](C)C4)cc3)nc2)c(Cl)c(OC)c1` [Compound 79, 4-chloro-3-(2-(2-((4-((3S,5R)-3,5-dimethylpiperazin-1-yl)phenyl)amino)pyrimidin-5-yl)ethyl)-5-methoxy-N-methylbenzamide]: the half-inhibitory concentration (IC50) turned out to be 6 nM in test [1] (read-out: FGFR1 (FP) IC50); 6 nM in test [2] (read-out: FGFR2 (FP) IC50); 6 nM in test [3]; 13 nM in test [4]; 14 nM in test [5]; 34 nM in test [6].
Consider `CNC(=O)c1cc(COc2cnc(Nc3ccc(N4C[C@@H](C)N[C@@H](C)C4)cc3)nc2)c(F)c(OC)c1` [Compound 192], for which the IC50 in test [1] (read-out: FGFR1 (FP) IC50) amounted to 12 nM; in test [2] (read-out: FGFR2 (FP) IC50) it was 6 nM; in test [3] it was 8 nM; in test [4] it was 8 nM; in test [5], 2 nM; in test [6], 14 nM.
Regarding `CNC(=O)c1cc(CCc2cnc(Nc3cnn(C4CCOCC4)c3)nc2)c(F)c(OC)c1` [Compound 132], the IC50 is 12 nM in test [1] (read-out: FGFR1 (FP) IC50); 6 nM in test [2] (read-out: FGFR2 (FP) IC50); 6 nM in test [3]; 20 nM in test [4]; 10 nM in test [5]; 59 nM in test [6].
For `CNC(=O)c1cc(CCc2cnc(Nc3cnn(C(F)F)c3)nc2)c(F)c(OC)c1` [Compound 116], the IC50 in test [1] (read-out: FGFR1 (FP) IC50) is 27 nM; in test [2] (read-out: FGFR2 (FP) IC50), 10 nM; in test [3] it was 28 nM; in test [4] it was 20 nM; in test [5], 45 nM; in test [6] it was 19 nM.
For `CNC(=O)c1cc(CCc2cnc(Nc3cnn(CC4CC4)c3)nc2)c(F)c(OC)c1` [Compound 141, 3-(2-(2-(1-(cyclopropylmethyl)-1H-pyrazol-4-ylamino)pyrimidin-5-yl)ethyl)-4-fluoro-5-methoxy-N-methylbenzamide], the concentration for half-maximal inhibition (IC50) in test [1] (FGFR1 (FP) IC50) was determined as 11 nM; in test [2] (FGFR2 (FP) IC50), 5 nM; in test [4] it was 15 nM; in test [6], 112 nM.
As for `CCS(=O)(=O)n1cc(Nc2ncc(CCc3cc(C(=O)NC)cc(OC)c3F)cn2)cn1` [Compound 140, 3-(2-(2-(1-(ethylsulfonyl)-1H-pyrazol-4-ylamino)pyrimidin-5-yl)ethyl)-4-fluoro-5-methoxy-N-methylbenzamide], the IC50 in test [2] (read-out: FGFR2 (FP) IC50) was determined as 16 nM; in test [3], 60 nM; in test [4], 152 nM; in test [5], 62 nM; in test [6], 438 nM.
Turning to `CCn1cc(Nc2ncc(/C=C/c3cc(C(=O)NC)cc(OC)c3Br)cn2)cn1` [Compound 3], the values for the IC50 in test [4], in test [5] and in test [6] were 72 nM, 134 nM and 370 nM, respectively.
For `CNC(=O)c1cc(COc2cnc(Nc3cnn(C)c3)nc2)c(Cl)c(OC)c1` [Compound 183], the IC50 is 7 nM in test [1] (read-out: FGFR1 (FP) IC50); 5 nM in test [2] (read-out: FGFR2 (FP) IC50); 9 nM in test [4]; 8 nM in test [5]; 14 nM in test [6].
